Experimental data taken from patent US9340549B2, “Oxazolidinone compounds and derivatives thereof” (priority 2012, dated 2016).
Where two headings read alike, the source gives them in different places.

Legend:
[1] = target: 6×HIS-tankyrase 1 (1091-1325) (Homo sapiens (Human), UniProt O95271); assay: biochemical; type: biochemical; details: 400 nM NAD, 60 minutes at room temperature, read-out: TNKS1 IP IC50
[2] = tested on: total β-catenin in SW480 colorectal cells; assay: cells; type: cell-based; details: Homo sapiens; SW480 cells, 40 to 48 hours, top concentration 10 μM; read-out: SW480-Total β-Catenin IC50 IP
Protocol: Total β-Catenin MSD 96-Well Plate Assay for SW480 Cells
SW480 colorectal cells were seeded at a density of 10,000/well in CellBIND 96-well plates (Corning catalog no. 3300) in 60 μL of normal growth medium (MEM alpha supplemented with 10% heat inactivated FBS, GlutaMAX, pyruvate, and 10 mM HEPES).
A 10-point, 3-fold dilution series for each TNKS inhibitor was constructed in a 96-well “stock” plate. […] The plates were incubated at 37° C. for 40 to 48 hours. The media was removed from the CellBIND plate via plate inversion and gentle shaking and the inverted plate was touched to a paper towel and immediately placed on ice. […] Plates containing cell lysates were sealed and shaken for one hour at 4° C. and then quickly frozen in a −80° C. for approximately 15 to 30 minutes followed by gradually thawing at 4° C. Finally, lysate containing plates were centrifuged @1000×g (2073 rpm) for 10 minutes at 4° C.
The sealed MSD plate was incubated overnight in a cold room with gentle shaking. The MSD plate was then blocked with 150 μL of Blocker “A” per well and incubated overnight at 4° C. with vigorous shaking. The blocked MSD plate was washed 4 times with 150 μL/well TBS-T wash buffer (150 mM NaCl, 50 mM Tris, pH 7.5, 0.02% Tween-20). Cell lysates (75 μL) were transferred to prepared MSD plates and incubated at 4° C. ON with gentle shaking. […] The detection antibody was incubated for 1 hour at room temperature with vigorous shaking after which plates were washed 3 times with 150 μL/well TBS-T wash buffer. Plates were processed for analysis by the addition of 150 μL/well MSD Read 4× Buffer T with surfactant (catalog no. R92TC-2; diluted 1:3 in deionized water) and were read on the SECTOR Imager 6000.

Sequence of 6×HIS-tankyrase 1 (1091-1325) (O95271 1091-1325): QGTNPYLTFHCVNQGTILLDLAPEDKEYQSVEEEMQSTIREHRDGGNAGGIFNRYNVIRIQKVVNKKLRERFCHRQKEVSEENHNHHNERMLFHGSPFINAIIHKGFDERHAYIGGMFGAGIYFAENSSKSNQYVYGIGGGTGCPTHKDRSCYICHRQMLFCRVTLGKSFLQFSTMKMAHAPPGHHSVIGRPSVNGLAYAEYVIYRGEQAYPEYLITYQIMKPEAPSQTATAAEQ

| IC50 ([1]; […] enzyme) | Structure (SMILES) | IC50 [2] | IC50 ([1]; 0.25 nM enzyme) |
| --- | --- | --- | --- |
|  | CC1(C)OC(=O)N(c2ccc(C(=O)Nc3cccc4cccnc34)cc2)C1c1cccnc1 (racemic) [Example 9, (+/−)-(R/S)-4-(5,5-dimethyl-2-oxo-4-(pyridin-3-yl)oxazolidin-3-yl)-N-(quinolin-8-yl)benzamide] | 2480 nM | 1160 nM |
|  | CC1(C)OC(=O)N(c2ccc(C(=O)Nc3cccc4cccnc34)cc2)C1c1cccc(F)c1 (racemic) [Example 108, (+/−)-(R/S)-4-(4-(3-fluorophenyl)-5,5-dimethyl-2-oxooxazolidin-3-yl)-N-(quinolin-8-yl)benzamide] | > 10000 nM | 551 nM |
|  | CC1(C)OC(=O)N(c2ccc(C(=O)Nc3cccc4cccnc34)cc2)C1c1ccccn1 (racemic) [Example 121, (+/−)-(R/S)-4-(5,5-dimethyl-2-oxo-4-(pyridin-2-yl)oxazolidin-3-yl)-N-(quinolin-8-yl)benzamide] | 5640 nM | 310 nM |
|  | CC1(C)OC(=O)N(c2ccc(C(=O)Nc3cccc4cccnc34)cc2)C1c1ccncc1 (racemic) [Example 124, (+/−)-(R/S)-4-(5,5-dimethyl-2-oxo-4-(pyridin-4-yl)oxazolidin-3-yl)-N-(quinolin-8-yl)benzamide] | 1500 nM | 767 nM |
|  | CC1(C)OC(=O)N([C@H]2CC[C@H](n3c(=O)[nH]c4cccnc43)CC2)[C@@H]1c1ccccc1 [Example 38, (R)-5,5-dimethyl-3-((1r,4R)-4-(2-oxo-1H-imidazo[4,5-b]pyridin-3(2H)-yl)cyclohexyl)-4-phenyloxazolidin-2-one] | 4740 nM |  |
|  | CC1(C)OC(=O)N([C@H]2CC[C@H](n3c(=O)n(CC(F)F)c4cnccc43)CC2)[C@H]1c1ccccc1 [Example 39, (S)-3-((1r,4S)-4-(3-(2,2-difluoroethyl)-2-oxo-2,3-dihydro-1H-imidazo[4,5-c]pyridin-1-yl)cyclohexyl)-5,5-dimethyl-4-phenyloxazolidin-2-one] | 6750 nM |  |
|  | CC1(C)OC(=O)N([C@H]2CC[C@H](n3c(=O)[nH]c4cc(C#N)c(F)cc43)CC2)[C@H]1c1ccccc1 [Example 103, 1-((1S,4r)-4-((S)-5,5-dimethyl-2-oxo-4-phenyloxazolidin-3-yl)cyclohexyl)-6-fluoro-2-oxo-2,3-dihydro-1H-benzo[d]imidazole-5-carbonitrile] | 67.2 nM |  |
| 260 nM | CC1(C)OC(=O)N([C@H]2CC[C@H](NC(=O)c3ccncn3)CC2)[C@H]1c1ccccc1 [Example 165, N-((1S,4r)-4-((S)-5,5-dimethyl-2-oxo-4-phenyloxazolidin-3-yl)cyclohexyl)pyrimidine-4-carboxamide] |  |  |
| > 46300 nM | Cc1nc(C(=O)N[C@H]2CC[C@H](N3C(=O)OC(C)(C)[C@@H]3c3ccccc3)CC2)cs1 [Example 166, N-((1S,4r)-4-((S)-5,5-dimethyl-2-oxo-4-phenyloxazolidin-3-yl)cyclohexyl)-2-methylthiazole-4-carboxamide] |  |  |
| > 46300 nM | CC1(C)OC(=O)N([C@H]2CC[C@H](NC(=O)c3csc(-c4ccncc4)n3)CC2)[C@H]1c1ccccc1 [Example 167, N-((1S,4r)-4-((S)-5,5-dimethyl-2-oxo-4-phenyloxazolidin-3-yl)cyclohexyl)-2-(pyridin-4-yl)thiazole-4-carboxamide] |  |  |
| > 46300 nM | CC1(C)OC(=O)N([C@H]2CC[C@H](NC(=O)c3cscn3)CC2)[C@H]1c1ccccc1 [Example 168, N-((1S,4r)-4-((S)-5,5-dimethyl-2-oxo-4-phenyloxazolidin-3-yl)cyclohexyl)thiazole-4-carboxamide] |  |  |
| 19 nM | CC1(C)OC(=O)N([C@H]2CC[C@H](c3cnc4cc[nH]c4c3)CC2)[C@H]1c1ccccc1 [Example 171, (S)-3-((1r,4S)-4-(1H-pyrrolo[3,2-b]pyridin-6-yl)cyclohexyl)-5,5-dimethyl-4-phenyloxazolidin-2-one] |  |  |
| 1250 nM | CC1(C)OC(=O)N([C@H]2CC[C@@H](c3cnc4cc[nH]c4c3)CC2)[C@H]1c1ccccc1 [Example 172, (S)-3-((1s,4R)-4-(1H-pyrrolo[3,2-b]pyridin-6-yl)cyclohexyl)-5,5-dimethyl-4-phenyloxazolidin-2-one] |  |  |
| 0.375 nM | C[C@H]1OC(=O)N([C@H]2CC[C@H](n3c(=O)[nH]c4cc(C#N)ccc43)CC2)[C@H]1c1ccccc1 [Example 178, 1-((1R,4s)-4-((4S,5R)-5-methyl-2-oxo-4-phenyloxazolidin-3-yl)cyclohexyl)-2-oxo-2,3-dihydro-1H-benzo[d]imidazole-5-carbonitrile] |  |  |
| 129 nM | C[C@@H]1OC(=O)N([C@H]2CC[C@H](n3c(=O)[nH]c4cc(C#N)ccc43)CC2)C1c1ccccc1 (stereo partly drawn) [Example 179, 1-((1R,4r)-4-((4R,5S)-5-methyl-2-oxo-4-phenyloxazolidin-3-yl)cyclohexyl)-2-oxo-2,3-dihydro-1H-benzo[d]imidazole-5-carbonitrile] |  |  |
| 915 nM | CC1(C)OC(=O)N([C@H]2CC[C@H](n3ncc4cc(C#N)ccc43)CC2)[C@@H]1c1ccccc1 [Example 180, 1-((1R,4r)-4-((R)-5,5-dimethyl-2-oxo-4-phenyloxazolidin-3-yl)cyclohexyl)-1H-indazole-5-carbonitrile] |  |  |
| 714 nM | CC1(C)OC(=O)N([C@H]2CC[C@H](n3ncc4cc(C#N)ccc43)CC2)[C@H]1c1ccccc1 [Example 181, 1-((1S,4r)-4-((S)-5,5-dimethyl-2-oxo-4-phenyloxazolidin-3-yl)cyclohexyl)-1H-indazole-5-carbonitrile] |  |  |
| 32.1 nM | CC1(C)OC(=O)N([C@H]2CC[C@H](NC(=O)c3csc(Br)n3)CC2)[C@H]1c1ccccc1 [Example 182, 2-bromo-N-((1S,4r)-4-((S)-5,5-dimethyl-2-oxo-4-phenyloxazolidin-3-yl)cyclohexyl)thiazole-4-carboxamide] |  |  |
| 3.94 nM | CC1(C)OC(=O)N([C@H]2CC[C@H](NC(=O)c3csc(-c4ncccn4)n3)CC2)[C@H]1c1ccccc1 [Example 183, N-((1S,4r)-4-((S)-5,5-dimethyl-2-oxo-4-phenyloxazolidin-3-yl)cyclohexyl)-2-(pyrimidin-2-yl)thiazole-4-carboxamide] |  |  |

| Structure (SMILES) | IC50 ([1]; […] enzyme) | IC50 [2] | IC50 ([1]; 0.25 nM enzyme) |
| --- | --- | --- | --- |
| CC1(C)OC(=O)N([C@@H]2CC=C(c3cnc4cc[nH]c4c3)CC2)[C@H]1c1ccccc1 (mixture of isomers) [Example 169, mixture of (S)-3-((S)-4-(1H-pyrrolo[3,2-b]pyridin-6-yl)cyclohex-3-en-1-yl)-5,5-dimethyl-4-phenyloxazolidin-2-one and (S)-3-((R)-4-(1H-pyrrolo[3,2-b]pyridin-6-yl)cyclohex-3-en-1-yl)-5,5-dimethyl-4-phenyloxazolidin-2-one] | 88.6 nM | 3180 nM |  |
| CC1(C)OC(=O)N([C@@H]2CC=C(c3cnc4ccn(-c5ncccn5)c4c3)CC2)[C@H]1c1ccccc1 (mixture of isomers) [Example 173, Mixture of (S)-5,5-dimethyl-4-phenyl-3-((S)-4-(1-(pyrimidin-2-yl)-1H-pyrrolo[3,2-b]pyridin-6-yl)cyclohex-3-en-1-yl)oxazolidin-2-one and (S)-5,5-dimethyl-4-phenyl-3-((R)-4-(1-(pyrimidin-2-yl)-1H-pyrrolo[3,2-b]pyridin-6-yl)cyclohex-3-en-1-yl)oxazolidin-2-one] | 9.26 nM | 1120 nM |  |
| C[C@]1(c2ccccc2)CN([C@H]2CC[C@H](n3c(=O)[nH]c4cc(C#N)ccc43)CC2)C(=O)O1 (single isomer, unassigned) [Example 94] | 270 nM | 3010 nM |  |
| C[C@@]1(c2ccccc2)CN([C@H]2CC[C@@H](n3c(=O)[nH]c4cc(C#N)ccc43)CC2)C(=O)O1 (stereo in doubt) [Example 93, 1-((1R,4r)-4-((R)-5-methyl-2-oxo-5-phenyloxazolidin-3-yl)cyclohexyl)-2-oxo-2,3-dihydro-1H-benzo[d]imidazole-5-carbonitrile] | 3 nM | 125 nM |  |
| CC1(C)OC(=O)N(c2ccc(-n3c(=O)[nH]c4ccccc43)cc2)[C@H]1c1ccccc1 [Example 19, (S)-5,5-dimethyl-3-(4-(2-oxo-2,3-dihydro-1H-benzo[d]imidazol-1-yl)phenyl)-4-phenyloxazolidin-2-one] | 863 nM | 8630 nM |  |
| CC1(C)OC(=O)N(c2ccc(C(=O)Nc3nccc4cccnc34)cc2)[C@H]1c1ccccc1 [Example 20, (S)-4-(5,5-dimethyl-2-oxo-4-phenyloxazolidin-3-yl)-N-(1,7-naphthyridin-8-yl)benzamide] | 1480 nM | 5330 nM |  |
| CC1(C)OC(=O)N([C@H]2CC[C@H](c3nnc(-c4ccccc4)o3)CC2)[C@H]1c1ccccc1 [Example 85, (S)-5,5-dimethyl-4-phenyl-3-((1r,4S)-4-(5-phenyl-1,3,4-oxadiazol-2-yl)cyclohexyl)oxazolidin-2-one] | 45.2 nM | 2410 nM |  |
